In the RepoRT retention time repository:

Test: HILIC, Waters ACQUITY UPLC BEH Amide, 100 × 2.1 mm, 1.7 µm; A: water + 0.125% formic acid + 10 mM ammonium formate; B: 5% water + 95% acetonitrile + 0.125% formic acid + 10 mM ammonium formate; gradient (min/%B) 0/100 2/100 7.7/70 9.5/40 10.25/30 12.75/100 17/100
Conditions: stereoisomer not certain

Compound | LC retention time [min]
CC(=O)Nc1ccc2c(c1)Cc1ccccc1-2 [N-2-Fluorenylacetamide] | 4.74
COC(=O)c1ccccc1C(=O)OC [Dimethyl phthalate] | 1.04
Nc1nc2[nH]c(=O)cnc2c(=O)[nH]1 [Isoxanthopterin] | 6.41
CN(C)c1nc2c(ncn2C2OC(CO)C(O)C2O)c(=O)[nH]1 (stereo not given) [N2,N2-Dimethylguanosine] | 5.62
CCOP(=O)(OCC)Oc1ccc([N+](=O)[O-])cc1 [Paraoxon] | 1.02
Nc1ncnc2c1ncn2C1CC(O)C(CO)O1 (stereo not given) [2'-Deoxyadenosine] | 3.92
CC(=O)C1(O)Cc2c(O)c3c(c(O)c2C(OC2CC(N)C(O)C(C)O2)C1)C(=O)c1ccccc1C3=O (stereo not given) [Idarubicin] | 5.42
COc1ccc(Cc2nccc3cc(OC)c(OC)cc23)cc1OC [Papaverine] | 1.54
COC1C(O)C(CO)OC1n1ccc(=O)[nH]c1=O (stereo not given) [2'-O-Methyluridine] | 2.24
CSCCC(N)C(=O)O (stereo not given) [Methionine] | 7.37
CC(C)(C)NC(=O)C1CCC2C3CCC4NC(=O)C=CC4(C)C3CCC12C (stereo not given) [Finasteride] | 1.17
CC(C)(C#N)c1cc(Cn2cncn2)cc(C(C)(C)C#N)c1 [Anastrozole] | 0.98
CCN1CCN(c2cc3c(cc2F)c(=O)c(C(=O)O)cn3C2CC2)CC1 [Enrofloxacin] | 3.31
NC(=O)CCCCC1CCSS1 (stereo not given) [Lipoamide] | 1.25
CC(=O)N1C(=O)C(=O)c2ccccc21 [Acetylisatin] | 2.4
COC1C(O)C(CO)OC1n1cc(C)c(=O)[nH]c1=O (stereo not given) [2'-O-Methyl-5-methyluridine] | 1.75
C[N+](C)(C)CCO [Choline [M]+] | 5.18
COC1C(CO)OC(n2cnc3c(=O)[nH]c(N)nc32)C1O (stereo not given) [3'-O-Methylguanosine] | 5.8
CC12CCC(=O)C=C1CCC1C2CCC2(C)C(O)CCC12 (stereo not given) [Testosterone] | 1.05
COC1C(O)C(CO)OC1n1cc(C)c(N)nc1=O (stereo not given) [2'-O-Methyl-5-methylcytidine] | 4.93
COc1cc2c(cc1OC)C13CCN4CC5=CCOC6CC(=O)N2C1C6C5CC43 (stereo not given) [Brucine] | 4.57
CC(N)C(=O)NC(C(=O)O)C(C)C (stereo not given) [Ala-Val] | 7.66
Cn1cncc1CC(N)C(=O)O (stereo not given) [3-Methylhistidine] | 9.41
CC(N)C(=O)O (stereo not given) [Alanine] | 8.05
CNCCC(Oc1ccccc1C)c1ccccc1 (stereo not given) [Atomoxetine] | 2.42
NC(=O)c1ccccc1 [Benzamide] | 1.27
COC(=O)C1=C(C)NC(C)=C(C(=O)OC2CCCN(Cc3ccccc3)C2)C1c1cccc([N+](=O)[O-])c1 (stereo not given) [Benidipine] | 1.46
CCC1=C(C)CN(C(=O)NCCc2ccc(S(=O)(=O)NC(=O)NC3CCC(C)CC3)cc2)C1=O (stereo not given) [Glimepiride] | 1.05
O=c1cccc[nH]1 [2-Pyridone] | 2.05
CNCCCCOc1ccccc1Cc1ccccc1 [Bifemelane] | 2.46

Results, then the compound that gave them:

LC retention time [min] | Compound
8.71 | O=C1CCC(C(=O)O)N1 (stereo not given) [Pyroglutamic acid]
2.88 | O=C(O)CNC(=O)Cc1ccccc1 [Phenylacetylglycine]
5.72 | CCC1(O)C(=O)OCc2c1cc1n(c2=O)Cc2cc3c(CN(C)C)c(O)ccc3nc2-1 (stereo not given) [Topotecan]
1.62 | Cc1cn(C2C=CC(CO)O2)c(=O)[nH]c1=O (stereo not given) [Stavudine]
5.23 | N=c1ccc2nc3ccc(N)cc3sc-2c1 [Thionin]
8.73 | NC(CO)C(=O)O (stereo not given) [Serine]
9.26 | CC(=O)NC1C(O)CC(O)(C(=O)O)OC1C(O)C(O)CO (stereo not given) [N-Acetylneuraminic acid]
5.66 | O=C(O)c1ccc[nH]1 [Pyrrole-2-carboxylic acid]
8.97 | O=c1ccn(C2OC(COP(=O)(O)O)C(O)C2O)c(=O)[nH]1 (stereo not given) [Uridine 5'-monophosphate]
3.65 | CCn1cc(C(=O)O)c(=O)c2cc(F)c(N3CCN(C)CC3)cc21 [Pefloxacin]
6.22 | CNC(Cc1ccccc1)C(=O)O (stereo not given) [N-Methylphenylalanine]
8.68 | C[C@](N)(Cc1cnc[nH]1)C(=O)O [alpha-Methylhistidine]
3.23 | CSCCC(NC(C)=O)C(=O)O (stereo not given) [N-Acetylmethionine]
6 | Cc1cc2nc3c(=O)[nH]c(=O)nc-3n(CC(O)C(O)C(O)CO)c2cc1C (stereo not given) [Riboflavin]
9.7 | C[S+](CCC(N)C(=O)[O-])CC1OC(n2cnc3c(N)ncnc32)C(O)C1O (stereo not given) [S-Adenosyl-methionine]
